The target of this test is T1, human EHMT2 913-1193 (Homo sapiens, UniProt Q96KQ7).
T1 construct: recombinant purified human EHMT2 913-1193, Viva; purchased Viva
T1 sequence (Q96KQ7 913-1193): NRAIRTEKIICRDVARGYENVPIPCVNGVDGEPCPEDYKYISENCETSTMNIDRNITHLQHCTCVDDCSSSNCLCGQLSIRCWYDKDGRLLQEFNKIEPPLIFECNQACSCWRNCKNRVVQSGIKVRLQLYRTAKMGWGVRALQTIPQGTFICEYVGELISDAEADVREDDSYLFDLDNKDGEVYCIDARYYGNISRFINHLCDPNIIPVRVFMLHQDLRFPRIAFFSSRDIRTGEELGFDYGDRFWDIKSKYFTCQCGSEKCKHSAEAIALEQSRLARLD
The experiment in a line: EHMT2 enzyme assay on histone peptide substrate (EHMT2 PEP). The class given is biochemical. The note with it: read-out: EHMT2 PEP IC50. In short, it runs like this:
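Inhibition is measured as reduced tritium incorporation into a biotinylated histone peptide from ^3H-SAM. The enzyme (0.031 nM) sees compound for 30 minutes before a 60-minute room-temperature reaction, which unlabeled SAM quenches prior to streptavidin Flashplate capture.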

SMILES strings stand for the structures. pIC50: −log10 of the molar value. Like-named read-outs stand apart in the source and are kept apart here. Bounds are passed on as bounds.

The results in this text go back to patent US20210198277A1, “AMINE-SUBSTITUTED ARYL OR HETEROARYL COMPOUNDS” (Epizyme, Inc., priority 2016, published 2021).

By pIC50 is commonly meant the negative decadic logarithm of the IC50, by convention in mol/L. As to `CNc1cc(C2CCOCC2)c2cc(OC)c(C#CCN3CCCC3)cc2n1` [Compound 1049], for the setting “Table VII”, the pIC50 is 6.00 to 7.00.

Take `CNc1ccnc(Nc2ccc(OC)c(OC[C@@H]3CNCCO3)c2)n1` [Compound 1072]: the pIC50 (Table VII) was less than 5.00. The same measure, in the same setting: under `CNc1ccnc(Nc2ccc(OC)c(OCCC(C)NC)c2)n1` (centres unmarked) [Compound 1073] stands 5.00 to 6.00. For the molecule `COc1ccc(Nc2nc(C)cc(NC3CCCOC3)n2)cc1OCCCN1CCCC1` (centres unmarked) [Compound 788], the pIC50 (Table VI) is 6.00 to 7.00. Take `COc1cc2c(C)cc(N3CCOCC3)nc2cc1OCCCN1CCCC1` [Compound 761]: the pIC50 (Table VI) is 5.00 to 6.00.
